This passage reports GI50 and TGI results from PubChem BioAssay (NCI).

Experiment in all cases: DTP human tumour cell line panel, 48 h
Assay [1] relates to RPMI-8226 leukemia.
For assay [2], the system named is SK-MEL-2 melanoma.
Assay [3] relates to SF-539 CNS.
For assay [4], the system named is DU-145 prostate.
The subject of assay [5] is CCRF-CEM leukemia.
Assay [6] concerns OVCAR-3 ovarian.
The test system of assay [7] is SK-MEL-5 melanoma.
In assay [8] the test system is SK-MEL-28 melanoma.
The subject of assay [9] is SNB-75 CNS.
Assay [10] relates to HCT-116 colon.

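96-well plates; 48 h exposure; 5 concentrations. Endpoints by linear interpolation between flanking doses. Not reached: highest tested concentration assigned. The concentration for 50% growth inhibition is given as GI50. Definition used: TGI = concentration required for complete inhibition of growth.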

Take `CCOC(=O)c1c2c(n(Cc3ccccc3)c1C)-c1nc[nH]c1C(=O)C2=O`: the GI50 in assay [1] was 1.1 µM; in assay [2], 17.7 µM; in assay [3], 17.7 µM; in [4] it was 9.83 µM; in assay [5], 1.57 µM; in [6], 13.9 µM. The GI50 was 15.9 µM in [7], 19.3 µM in [8], 4.13 µM in [9] and 16 µM in [10]. Moreover, the TGI in [1] was found to be 10.7 µM; in assay [2] it was 32.2 µM; in assay [3], 31.9 µM; in [4] it was 21.5 µM; in assay [5], 7.87 µM; in assay [6], 26.8 µM. Besides, the TGI in assay [7] is 29.8 µM; in assay [8], 34.1 µM; in assay [9] it was 16.2 µM; in [10] it was 30.4 µM.
On to `C#CCOCCCC(=O)O`, for which the TGI in assay [1], in assay [2], in [3], in [4], in assay [5] and in [6] was more than 100 µM in each case. The TGI in [7], in assay [8], in assay [9] and in [10] was more than 100 µM in each case.
As to `COc1cc2cc(Oc3ccc(NC(=O)Nc4ccc(F)c(C(F)(F)F)c4)cc3)c(C)nc2cc1OCCN1CCOCC1`, the GI50 was 1.12 µM in assay [1]; 2.38 µM in [2]; 1.77 µM in assay [3]; 3.5 µM in assay [4]; 1.72 µM in [5]; 2.94 µM in [6]. Moreover, the GI50 was 1.14 µM in assay [7], 1.62 µM in assay [8], 1.96 µM in assay [9] and 1.11 µM in assay [10]. Also, the TGI was found to be 4.25 µM in assay [1]; 7.58 µM in assay [2]; 3.44 µM in assay [3]; 15.2 µM in assay [4]; 11.5 µM in assay [5]; 13.6 µM in assay [6]. The TGI in assay [7] came out at 2.36 µM; in [8], 3.13 µM; in assay [9], 7.45 µM; in [10], 11.2 µM.
For `O=C1NC(=N[C@@H]2C[C@H]2c2ccccc2)S/C1=C\c1ccc2ncccc2c1`, the GI50 is 1.28 µM in [1]; 4 µM in assay [2]; 1.04 µM in assay [3]; 1.94 µM in assay [4]; 1.31 µM in [5]; 3.01 µM in assay [6]. Besides, the GI50 is 3.93 µM in assay [7], 4.46 µM in assay [8], 1.02 µM in [9] and 0.839 µM in assay [10]. Moreover, the TGI in assay [1] is 7.52 µM; in [2], 9.55 µM; in [3], 5.07 µM; in assay [4] it was 24.9 µM; in assay [5] it was more than 25 µM; in [6] it was 10.3 µM. For the same compound, the TGI is 9.2 µM in assay [7], more than 18 µM in assay [8], 5.17 µM in [9] and 5.72 µM in assay [10].
Take `COc1ccc(-c2nc(Nc3ccc(F)cc3)nc(Nc3ccc4c(c3)nc(C)n4Cc3ccccc3)n2)cc1`: the GI50 is 2.48 µM in [1]; 3.47 µM in assay [2]; 4.99 µM in assay [3]; 7.59 µM in assay [4]; 2.88 µM in assay [5]; 6.54 µM in assay [6]. Also, the GI50 was 3.2 µM in assay [7], 4.14 µM in assay [8], 2.83 µM in [9] and 3 µM in assay [10]. In addition, the TGI in assay [1] was 88.1 µM; in [2], 11.9 µM; in assay [3] it was more than 100 µM; in assay [4], more than 100 µM; in [5], more than 100 µM; in assay [6] it was more than 100 µM. Also, the TGI in [7] was 24.2 µM; in assay [8] it was more than 100 µM; in [9], more than 100 µM; in assay [10], more than 100 µM.
Regarding `CCOC(=O)c1cc2c(OC)cc(OC)cc2oc1=O`, the TGI in [1], in assay [2], in assay [3], in assay [4], in assay [5] and in [6] was more than 100 µM throughout. Also, the TGI in assay [7], in assay [8], in assay [9] and in assay [10] was more than 100 µM each time.
Regarding `COc1ccc2c(c1)OC(N)=C(C#N)C2c1ccc(F)c(F)c1` (configuration not stated), the GI50 in [1] is 0.455 µM; in assay [2] it was 0.343 µM; in assay [3], 0.271 µM; in assay [4], 0.522 µM; in assay [5] it was 0.409 µM; in [6], 0.324 µM. For the same compound, the GI50 is 0.415 µM in [7], 3.43 µM in [8], 0.186 µM in [9] and 0.41 µM in [10]. Moreover, the TGI in assay [1] is 31.7 µM; in assay [2] it was more than 93.7 µM; in [3], 1.05 µM; in assay [4], more than 46.5 µM; in assay [5], more than 100 µM; in [6], 3.4 µM. Moreover, the TGI in assay [7] is 29.7 µM; in assay [8], more than 100 µM; in [9], 4.87 µM; in assay [10], 25.5 µM.
Consider `CN1CCN(C(=O)OCc2nc3c(N4CCOCC4)nc(-c4ccccc4)nc3n2C)CC1`, for which the GI50 in [1] is 0.335 µM; in assay [2] it was 1.85 µM; in assay [3], 1.33 µM; in [4], 1.19 µM; in [5], 0.321 µM; in assay [6], 0.295 µM. The GI50 in assay [7] was 1.5 µM; in [8], 1.48 µM; in [9] it was 1.04 µM; in assay [10], 0.207 µM. Besides, the TGI was 1.87 µM in [1]; 3.69 µM in assay [2]; 2.6 µM in assay [3]; 2.48 µM in assay [4]; 1.57 µM in assay [5]; 1.16 µM in assay [6]. For the same compound, the TGI in assay [7] worked out at 2.85 µM; in assay [8], 2.81 µM; in assay [9], 2.27 µM; in [10], 0.648 µM.
Consider `CC(C)c1ccc2c(c1)CCC1C(C)(CN)CCCC21C` (configuration not stated), for which the TGI was determined as 4.3 µM in assay [1]; 3.15 µM in assay [2]; 3.36 µM in assay [3]; 3.33 µM in [4]; 3.92 µM in assay [5]; 3.26 µM in [6]. For the same compound, the TGI came to 3.17 µM in assay [7], 3.11 µM in assay [8], 3.19 µM in [9] and 2.93 µM in assay [10].
As to `NS(=O)(=O)c1ccc(N=Nc2c(O)[nH]c3cccc(CCc4ccncc4)c23)cc1`, the GI50 in [1], in [2], in [3], in [4], in [5] and in [6] was more than 25 µM each time. In addition, the GI50 in assay [7], in assay [8], in assay [9] and in [10] was more than 25 µM each time. For the same compound, the TGI in [1], in [2], in assay [3], in assay [4], in assay [5] and in assay [6] was more than 25 µM in each case. The TGI in assay [7], in assay [8], in [9] and in assay [10] was more than 25 µM throughout.
`Cc1cc(C)c2c(=O)cc(-c3ccc(F)cc3)[nH]c2n1`: the TGI in assay [1], in assay [2], in assay [3], in assay [4], in assay [5] and in assay [6] was more than 100 µM each time. Moreover, the TGI in assay [7] is 75.8 µM; in [8], more than 100 µM; in assay [9], more than 100 µM; in assay [10] it was more than 100 µM. Besides, the GI50 in assay [6] was 43.5 µM; in assay [7], 26.2 µM; in assay [10] it was 50 µM.
For `Cc1cccc2c1NC(=O)[C@@H](NC(=O)[C@H](CCC(F)(F)F)[C@H](CCC(F)(F)F)C(N)=O)N=C2c1cccc(F)c1`, the GI50 is more than 100 µM in [1]; 41.5 µM in assay [2]; 18.4 µM in [3]; 71.4 µM in [4]; more than 100 µM in [5]; 33.3 µM in assay [6]. The GI50 in assay [7] is more than 100 µM; in assay [8] it was more than 100 µM; in assay [9] it was 10.8 µM; in assay [10] it was 51.2 µM. Also, the TGI in [1] is more than 100 µM; in [2], more than 100 µM; in assay [3] it was 41.8 µM; in [4], more than 100 µM; in assay [5], more than 100 µM; in assay [6] it was more than 100 µM. Also, the TGI in assay [7] is more than 100 µM; in assay [8], more than 100 µM; in [9], 32.1 µM; in assay [10], more than 100 µM.
As for `OC1CCC(COC(c2ccccc2)(c2ccccc2)c2ccccc2)O1` (configuration not stated), the TGI in assay [1] is 40.7 µM; in [2], 42.6 µM; in assay [3], 32.5 µM; in assay [4], 38.3 µM; in assay [5], 35.8 µM; in assay [6], 32.4 µM. The TGI in assay [7] is 30.9 µM; in assay [8], 33.4 µM; in assay [9], 26.5 µM; in [10] it was 30.4 µM.
As to `COc1cc2c3c(n(CCCNC(C)(C)CO)c(=O)c2cc1OC)-c1cc2c(cc1C3=O)OCO2`, the GI50 in [1] is 0.0169 µM; in [2], 30.8 µM; in assay [3] it was 0.356 µM; in assay [4], 0.819 µM; in [6], 15.1 µM; in [7] it was 3.5 µM. Moreover, the GI50 was 25.4 µM in assay [8], 2.58 µM in assay [9] and 0.35 µM in [10]. The TGI in assay [1] was 0.464 µM; in assay [2] it was more than 78.5 µM; in assay [3] it was 31.3 µM; in assay [4] it was 16.3 µM; in assay [5] it was 1.58 µM; in [6], 39.8 µM. Also, the TGI is 13.3 µM in assay [7], more than 65.6 µM in [8], 44 µM in [9] and 1.73 µM in assay [10].
In the case of `O=C(NCCNc1nccc(-c2c(-c3ccc(F)cc3)nc3sccn23)n1)Nc1cccc(C(F)(F)F)c1`, the GI50 in assay [1] is 3.52 µM; in assay [2], 3.02 µM; in assay [3], 11.5 µM; in assay [4] it was 11.6 µM; in assay [5], 3.14 µM; in assay [6], 17.7 µM. Besides, the GI50 in assay [7] is 1.58 µM; in assay [8] it was 7.76 µM; in assay [9], 7.13 µM; in assay [10], 5.47 µM. Also, the TGI amounted to 34 µM in assay [1]; 8.8 µM in assay [2]; 26.7 µM in assay [3]; 30.9 µM in assay [4]; 30.1 µM in assay [5]; 94.5 µM in assay [6]. For the same compound, the TGI was determined as 3.43 µM in assay [7], 20.9 µM in assay [8], 21.7 µM in assay [9] and 18.9 µM in assay [10].
`CSc1nc(SC)c2c(C)cn(Cc3ccccc3)c2n1`: the TGI in assay [1], in assay [2], in [3], in [4], in assay [5] and in [6] was more than 100 µM each time. Also, the TGI in [7], in assay [8], in [9] and in assay [10] was more than 100 µM throughout.
Turning to `NNC(=S)N/N=C/c1ccccn1`, the GI50 is 2.44 µM in assay [1]; 2.86 µM in assay [2]; 2.06 µM in assay [3]; 1.85 µM in [4]; 2.05 µM in [5]; 3.02 µM in assay [6]. Further, the GI50 was 2.63 µM in assay [7], 4.47 µM in [8], 1.72 µM in assay [9] and 1.66 µM in assay [10]. Further, the TGI is more than 100 µM in assay [1]; more than 100 µM in assay [2]; 9.32 µM in [3]; more than 100 µM in [4]; more than 100 µM in assay [5]; more than 100 µM in assay [6]. Moreover, the TGI in assay [7] was 22.3 µM; in assay [8] it was more than 100 µM; in assay [9] it was 11.4 µM; in [10] it was more than 100 µM.
